Measured values from patent publication EP4721767A1 (priority 2023, dated 2024).
Residue numbers refer to the chain shown, from its start. “And” between values parts separate entries of the source, which are not always exact repeats. Equal entries are not always repeated.

Tests used:
[1] = test system: NCI-N87 human gastric cancer cells; assay: cells; type: cell-based; settings: NCI-N87, killing 4 days; for EC50: Homo sapiens, NCI-N87, 96 h
[2] = test system: BxPC-3 human pancreatic adenocarcinoma cells; assay: cells; type: cell-based; settings: BxPC-3, killing 4 days; for EC50: Homo sapiens, BXPC-3, 96 h
[3] = test system: HT29 human colon cancer cells; assay: Cell killing activity of camptothecins (CCK-8); type: cell-based; settings: HT29, killing 4 days; for EC50: Homo sapiens, HT-29, 96 h
Procedure: (§1) KB oral epithelial cancer cells (purchased from: ATCC) were cultured in DMEM medium supplemented with 10% FBS; NCI-N87 human gastric cancer cells (purchased from: ATCC) were cultured in RPMI1640 medium supplemented with 10% FBS; HT29 human colon cancer cells (purchased from: ATCC) were cultured in RPMI1640 medium supplemented with 10% FBS; and BxPC-3 human pancreatic adenocarcinoma cells (purchased from: ATCC) were cultured in RPMI1640 medium supplemented with 10% FBS.
(§2) Using corresponding media described above and in cell plates, the density of KB cells was adjusted to 2×10^4/mL; the density of NCI-N87 cells was adjusted to 5×10^4/mL; the density of HT29 cells was adjusted to 5×10^4/mL, and the cells were plated onto 96-well transparent flat bottom plates, at 100 µL/well, and cultured overnight; and the density of BxPC-3 cells was adjusted to 5×10^4/mL.
(§3) Samples to be detected were diluted to 20 µM with corresponding media, then 5-fold gradient dilution was performed, and 9 concentrations were obtained. A well having cells but with no any sample added was set as the well showing maximum cell growth; and a well having no cells was set as the well of medium background. The diluted samples were added into the cell plates, at 100 µL/well, which were then incubated in a CO2 incubator for 96 hours. After the incubation, CCK-8 (purchased from: DOJINDO LABORATORIES) prepared beforehand was added into the plates, at 20 µL/well, and after further 3 hours of incubation in the CO2 incubator, OD values at 450 nm were read on a microplate reader.
(§4) Data obtained was fitted to a four-parameter curve using software Prism7, and equation for calculating maximum killing is: maximum killing (%) = 1 - (OD450 value of the well showing maximum killing - OD450 value of the well of medium background) / (OD450 value of the well showing maximum cell growth - OD450 value of the cell of medium background) × 100%. Table 6. Results of comparative study on the activity of camptothecins

[4] = test system: KB oral epithelial cancer cells; assay: Cell killing activity of camptothecins (CCK-8); type: cell-based; settings: killing 4 days; for EC50: 96 h
Procedure: as §1, §2, §3, §4

[5] = molecular target: T1, Recombinant human B7-H3 extracellular domain protein (UniProtKB-Q5ZPR3, amino acids 1-461, C-His tag) (human) (UniProt Q5ZPR3); assay: BLI (ForteBio Octet QKe), antibody on AHC probes, 60 nM antigen, 1:1 Langmuir fit
T1 sequence (looked up): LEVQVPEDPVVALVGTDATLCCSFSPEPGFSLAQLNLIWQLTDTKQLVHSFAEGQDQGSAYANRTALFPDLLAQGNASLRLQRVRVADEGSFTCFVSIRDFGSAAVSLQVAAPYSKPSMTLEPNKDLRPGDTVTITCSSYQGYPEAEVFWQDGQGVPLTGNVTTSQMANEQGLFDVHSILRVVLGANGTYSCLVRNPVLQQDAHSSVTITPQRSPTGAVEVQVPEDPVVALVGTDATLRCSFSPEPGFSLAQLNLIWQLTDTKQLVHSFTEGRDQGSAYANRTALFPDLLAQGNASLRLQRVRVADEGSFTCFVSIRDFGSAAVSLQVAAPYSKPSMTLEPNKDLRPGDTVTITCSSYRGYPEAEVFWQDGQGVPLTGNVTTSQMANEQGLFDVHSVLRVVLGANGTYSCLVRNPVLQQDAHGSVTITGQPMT

[6] = molecular target: T2, human B7-H3 naturally expressed on the surface of SKOV3 cells (human) (UniProt Q5ZPR3); assay: flow cytometry (MFI) on SKOV3 cells naturally expressing human B7-H3
T2 sequence (looked up): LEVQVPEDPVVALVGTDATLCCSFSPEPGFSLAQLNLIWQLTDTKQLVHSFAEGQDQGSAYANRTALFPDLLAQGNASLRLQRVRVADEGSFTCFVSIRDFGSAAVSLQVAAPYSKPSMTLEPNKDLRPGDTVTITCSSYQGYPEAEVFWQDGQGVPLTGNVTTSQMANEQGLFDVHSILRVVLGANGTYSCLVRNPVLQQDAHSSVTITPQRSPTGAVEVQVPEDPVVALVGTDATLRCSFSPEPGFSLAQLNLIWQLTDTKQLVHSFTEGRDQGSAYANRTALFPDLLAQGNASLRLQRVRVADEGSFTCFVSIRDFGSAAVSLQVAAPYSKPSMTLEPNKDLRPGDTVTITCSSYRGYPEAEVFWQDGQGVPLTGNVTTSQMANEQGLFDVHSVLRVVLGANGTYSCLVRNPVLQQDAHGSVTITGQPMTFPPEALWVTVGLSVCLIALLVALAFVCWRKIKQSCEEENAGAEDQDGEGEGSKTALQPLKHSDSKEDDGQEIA

[7] = Phase I, advanced solid tumors, reported 2021; cited from earlier work
[8] = molecular target: T3, Recombinant human B7-H3 extracellular domain protein (UniProtKB-Q5ZPR3, amino acids 1-461, C-His tag) (human, UniProt Q5ZPR3 29-461); assay: BLI (ForteBio Octet QKe), antibody on AHC probes, 60 nM antigen, 1:1 Langmuir fit
T3 construct: range 1-461; The printed range 1-461 starts at residue 1 and so covers the signal peptide; also called human B7-H3 ECD-His; recombinant human B7-H3 ECD protein; not shown: C-terminal His tag
T3 sequence (looked up): T1 sequence (looked up)

[9] = molecular target: T4, human B7-H3 naturally expressed on the surface of SKOV3 cells (human, UniProt Q5ZPR3 29-534); assay: flow cytometry (MFI) on SKOV3 cells naturally expressing human B7-H3
T4 construct: whole, on cells; also called surface antigen of SKOV3 cells; B7-H3 on the surface of SKOV3 cells
T4 sequence (looked up): T2 sequence (looked up)

Molecule: CC[C@@]1(O)C(=O)OCc2c1cc1n(c2=O)Cc2c-1nc1cc(F)c(C)c3c1c2[C@@H](NC(=O)CO)CC3 [Dxd, reference compound]
- Maximum Killing (%) [1]: 93.3%
- Maximum Killing (%) [2]: 93.1%
- EC50 [2]: 33.7 nM
- EC50 [3]: 133 nM
- EC50 [4]: 138 nM

Molecule: CC[C@@]1(O)C(=O)OCc2c1cc1n(c2=O)Cc2c-1nc1ccc(N)c3c1c2CC[S@+]3[O-] [Compound 14-P1]
- EC50 [1]: 503 nM

Molecule: CC[C@@]1(O)C(=O)OCc2c1cc1n(c2=O)Cc2c-1nc1ccc(N)c3c1c2CCS3 [Compound 12]
- EC50 [1]: 8.43 nM
- EC50 [2]: 2.15 nM

Molecule: CC[C@@]1(O)C(=O)OCc2c1cc1n(c2=O)Cc2c-1nc1cc(F)c(N)c3c1c2C(F)(F)CO3 [Compound 19]
- EC50 [1]: 0.864 nM
- Maximum Killing (%) [1]: 93.5%
- EC50 [2]: 1.4 nM

Molecule: CC[C@@]1(O)C(=O)OCc2c1cc1n(c2=O)Cc2c-1nc1ccc(N)c3c1c2CCS3(=O)=O [Compound 15]
- EC50 [1]: 178 nM
- EC50 [2]: 79.6 nM

Molecule: CC[C@@]1(O)C(=O)OCc2c1cc1n(c2=O)Cc2c-1nc1ccc(N)c3c1c2CCC3 [MWC-1, reference compound]
- Maximum Killing (%) [1]: 93.3%
- Maximum Killing (%) [3]: 89% and 89.9%
- EC50 [4]: 15.7 nM
- Maximum Killing (%) [4]: 98.6%

Molecule: CC[C@@]1(O)C(=O)OCc2c1cc1n(c2=O)Cc2c-1nc1cc(F)c(N)c3c1c2C(F)(F)CS3 [Compound 27]
- EC50 [1]: 1.75 nM
- EC50 [2]: 1.52 nM

Molecule: CC[C@@]1(O)C(=O)OCc2c1cc1n(c2=O)Cc2c-1nc1ccc(N)c3c1c2C1CC1C3 (some centres unmarked) [Compound 7]
- EC50 [1]: 3.31 nM
- EC50 [2]: 11.4 nM

Molecule: CC[C@@]1(O)C(=O)OCc2c1cc1n(c2=O)Cc2c-1nc1ccc(N)c3c1c2C(F)(F)CO3 [Compound 31]
- EC50 [1]: 8.59 nM
- EC50 [2]: 4.42 nM

Molecule: CC[C@@]1(O)C(=O)OCc2c1cc1n(c2=O)Cc2c-1nc1cc(F)c(N)c3c1c2CCO3 [Compound 18]
- EC50 [1]: 1.57 nM
- EC50 [2]: 1.45 nM

Molecule: CC[C@@]1(O)C(=O)OCc2c1cc1n(c2=O)Cc2c-1nc1ccc(N)c3c1c2C(C)(C)CC3 [Compound 1]
- EC50 [1]: 21.9 nM
- Maximum Killing (%) [3]: 91.9%
- EC50 [3]: 43.4 nM
- EC50 [4]: 52.3 nM
- Maximum Killing (%) [4]: 97.6%

Molecule: CC[C@@]1(O)C(=O)OCc2c1cc1n(c2=O)Cc2c-1nc1ccc(N)c3c1c2CC[S@@+]3[O-] [Compound 14-P2]
- EC50 [1]: 2000 nM

Molecule: CC[C@@]1(O)C(=O)OCc2c1cc1n(c2=O)Cc2c-1nc1cc(F)c(N)c3c1c2CCS3 [Compound 26]
- EC50 [1]: 1.02 nM
- EC50 [2]: 1.11 nM

B1: Control antibody hum30 (antibody, from another filing, V domains shown)
VH: QVQLVQSGAEVKKPGSSVKVSCKASGYTFTNYVMHWVRQAPGQGLEWMGYINPYNDDVKYNEKFKGRVTITADESTSTAYMELSSLRSEDTAVYYCARWGYYGSPLYYFDYWGQGTLVTVSS
VL: EIVLTQSPATLSLSPGERATLSCRASSRLIYMHWYQQKPGQAPRPLIYATSNLASGIPARFSGSGSGTDFTLTISSLEPEDFAVYYCQQWNSNPPTFGQGTKVEIK
- Kd [5]: 0.344 nM
- koff [5]: 0.000324 s⁻¹
- kon [5]: 941000 M⁻¹ s⁻¹
- EC50 [6]: 1.22 nM

B2: MGC018: MacroGenics ADC: anti-B7-H3 humanized IgG1 monoclonal antibody conjugated to Duocarmycin (DUBA) via a cleavable linker, average DAR 2.7 (conjugate, chains of the INN, looked up)
VH: EVQLVESGGGLVKPGGSLRLSCAASGFTFSSYGMSWVRQAPGKGLEWVATINSGGSNTYYPDSLKGRFTISRDNAKNSLYLQMNSLRAEDTAVYYCARHDGGAMDYWGQGTTVTVSS
VL: DIQMTQSPSSLSASVGDRVTITCRASESIYSYLAWYQQKPGKAPKLLVYNTKTLPEGVPSRFSGSGSGTDFTLTISSLQPEDFATYYCQHHYGTPPWTFGQGTRLEIK
modifications: duocarmycin (DUBA) payload, cleavable linker, DAR 2.7
- Grade 3 and higher treatment-related adverse events (TRAEs) [7]: 50%
- patients with Grade 3 and higher treatment-related adverse events (TRAEs) [7]: 43 patients
- severe TRAE neutropenia [7]: 22.1%
- severe TRAE thrombocytopenia [7]: 7%

B3: hz10B4 (antibody, V domains shown)
VH: EVQLVQSGAEVKKPGASVKVSCKASGYTFTEYIMHWVRQAPGQGLEWMGGINPASGGTTYNQKFKGRVTMTRDTSISTAYMELSRLRSEDTAVYYCARKGKDYFDWYFDVWGQGTTVTVSS
VL: DIQLTQSPSSLSASVGDRVTMTCSASSSVSYMHWYQQKPGKAPKLLIYDTSKLASGVPSRFSGSGSGTDFTLTISSLQPEDFATYYCQQWSSNPLTFGGGTKVEIK
notes: Humanized anti-B7-H3 antibody prepared by the method of CN114573695A; also called parent hz10B4; hz10B4-VH×hz10B4-VL
- Kd [8]: 0.216 nM
- koff [8]: 0.000143 s⁻¹
- kon [8]: 665000 M⁻¹ s⁻¹
- EC50 [9]: 1.58 nM

B4: hz10B4m1 (antibody, V domains shown)
VH: B3 VH
VL: B3 VL with N93A
notes: LCDR3 variant of hz10B4 (SSN→SSA); also called hz10B4-VH×hz10B4-Lm1-VL
- Kd [8]: 0.352 nM
- koff [8]: 0.000225 s⁻¹
- kon [8]: 639000 M⁻¹ s⁻¹
- EC50 [9]: 1.89 nM

B5: hz10B4m2 (antibody, V domains shown)
VH: B3 VH
VL: B3 VL with S92A, N93S
notes: LCDR3 variant of hz10B4 (SSN→SAS); also called hz10B4-VH×hz10B4-Lm2-VL
- Kd [8]: 0.381 nM
- koff [8]: 0.000287 s⁻¹
- kon [8]: 755000 M⁻¹ s⁻¹
- EC50 [9]: 1.45 nM

B6: hz10B4m3 (antibody, V domains shown)
VH: B3 VH
VL: B3 VL with N93Q
notes: LCDR3 variant of hz10B4 (SSN→SSQ); also called hz10B4-VH×hz10B4-Lm3-VL
- Kd [8]: 0.422 nM
- koff [8]: 0.000281 s⁻¹
- kon [8]: 666000 M⁻¹ s⁻¹
- EC50 [9]: 1.59 nM

B7: hz10B4m4 (antibody, V domains shown)
VH: B3 VH
VL: B3 VL with N93G
notes: LCDR3 variant of hz10B4 (SSN→SSG); also called hz10B4-VH×hz10B4-Lm4-VL
- Kd [8]: 0.831 nM
- koff [8]: 0.00042 s⁻¹
- kon [8]: 505000 M⁻¹ s⁻¹
- EC50 [9]: 16.9 nM

B8: hz10B4m5 (antibody, V domains shown)
VH: B3 VH
VL: B3 VL with S92G, N93S
notes: LCDR3 variant of hz10B4 (SSN→SGS); also called hz10B4-VH×hz10B4-Lm5-VL
- Kd [8]: 0.568 nM
- koff [8]: 0.000336 s⁻¹
- kon [8]: 592000 M⁻¹ s⁻¹
- EC50 [9]: 2.25 nM
